Assay results taken from ChEMBL document CHEMBL1671637, “Development, stability, and molecular mechanisms of macrolide resistance in Campylobacter jejuni” (2008).
In brackets after ≈: the same amount, converted by molar mass. Activity calls are given as the source filed them. The rule behind the calls is not given here.

How the values were obtained:
Campylobacter jejuni [1] = assay: Antimicrobial activity against Campylobacter jejuni DC2 infected in 15 days old chicken food on medicated food by agar dilution method; assay type: functional
Campylobacter jejuni [2] = assay: Antimicrobial activity against Campylobacter jejuni DC6 infected in 3 days old chicken by agar dilution method; assay type: functional
Campylobacter jejuni [3] = assay: Antimicrobial activity against Campylobacter jejuni DC26 infected in chicken assessed as microbial shedding level after compound administration through feed for 20 days; assay type: functional, organism-based
Campylobacter jejuni [4] = assay: Antimicrobial activity against Campylobacter jejuni DC2 infected in chicken assessed as microbial shedding level after compound administration through feed for 20 days; assay type: functional, organism-based
Campylobacter jejuni [5] = assay: Antimicrobial activity against Campylobacter jejuni DC26 infected in 15 days old chicken food on medicated food by agar dilution method; assay type: functional
Campylobacter jejuni [6] = assay: Antimicrobial activity against Campylobacter jejuni DC2 infected in 3 days old chicken by agar dilution method; assay type: functional
Campylobacter jejuni [7] = assay: Antimicrobial activity against Campylobacter jejuni DC2 infected in 15 days old chicken by agar dilution method; assay type: functional

MIC (Campylobacter jejuni [1]): 64 µg/mL (≈ 69.9 µM)
MIC (Campylobacter jejuni [2]): > 512 µg/mL
MIC (Campylobacter jejuni [5]): 128 µg/mL (≈ 140 µM)
MIC (Campylobacter jejuni [6]): 64 µg/mL (≈ 69.9 µM)
MIC (Campylobacter jejuni [7]): 64 µg/mL (≈ 69.9 µM)
SMILES: CC[C@H]1OC(=O)C[C@@H](O)[C@H](C)[C@@H](O[C@@H]2O[C@H](C)[C@@H](O[C@H]3C[C@@](C)(O)[C@@H](O)[C@H](C)O3)[C@H](N(C)C)[C@H]2O)[C@@H](CC=O)C[C@@H](C)C(=O)/C=C/C(C)=C/[C@@H]1CO[C@@H]1O[C@H](C)[C@@H](O)[C@@H](OC)[C@H]1OC [TYLOSIN]
Activity (Campylobacter jejuni [3]): inactive
Activity (Campylobacter jejuni [4]): inactive
